Assay [1] has as its target T1, BTK enzyme (recombinant full-length BTK, hBTK) (Homo sapiens, UniProt Q06187).
T1 construct: recombinant protein from baculovirus-transfected Sf9 cells: full-length BTK, 6HIS-tag cleaved; 6HIS (cleaved yes); made in house; host or cells: baculovirus-transfected Sf9 cells
In words: BTK enzyme activity assay, LANCE TR-FRET. The assay is classed as biochemical. As to conditions: 50 pM hBTK, 2 μM biotin-A5-peptide, 25 μM ATP; 60 min compound & enzyme incubation; read-out: IC50 BTK activity value.

Assay [2] deals with HeLa cells. Briefly: [3H]Adenosine uptake functional cellular assay. The assay is classed as cell-based. As to conditions: Homo sapiens, HeLa, accumulation of [3H]adenosine into HeLa cells; compound range 10 μM to […]; read-out: Adenosine uptake inhibition IC50. In outline: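 Inhibition of adenosine uptake was measured in HeLa cells (ATCC CCL-2) by following accumulation of tritiated adenosine. Cells were kept overnight at 37° C. with 5% (v/v) CO2, then switched to 40 μL HBSS plus 5% (v/v) FBS. 20 μL of 500 nM [3H]adenosine was added, and uptake was counted on a Topcount NXT reader.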

T1 sequence (Q06187 whole entry): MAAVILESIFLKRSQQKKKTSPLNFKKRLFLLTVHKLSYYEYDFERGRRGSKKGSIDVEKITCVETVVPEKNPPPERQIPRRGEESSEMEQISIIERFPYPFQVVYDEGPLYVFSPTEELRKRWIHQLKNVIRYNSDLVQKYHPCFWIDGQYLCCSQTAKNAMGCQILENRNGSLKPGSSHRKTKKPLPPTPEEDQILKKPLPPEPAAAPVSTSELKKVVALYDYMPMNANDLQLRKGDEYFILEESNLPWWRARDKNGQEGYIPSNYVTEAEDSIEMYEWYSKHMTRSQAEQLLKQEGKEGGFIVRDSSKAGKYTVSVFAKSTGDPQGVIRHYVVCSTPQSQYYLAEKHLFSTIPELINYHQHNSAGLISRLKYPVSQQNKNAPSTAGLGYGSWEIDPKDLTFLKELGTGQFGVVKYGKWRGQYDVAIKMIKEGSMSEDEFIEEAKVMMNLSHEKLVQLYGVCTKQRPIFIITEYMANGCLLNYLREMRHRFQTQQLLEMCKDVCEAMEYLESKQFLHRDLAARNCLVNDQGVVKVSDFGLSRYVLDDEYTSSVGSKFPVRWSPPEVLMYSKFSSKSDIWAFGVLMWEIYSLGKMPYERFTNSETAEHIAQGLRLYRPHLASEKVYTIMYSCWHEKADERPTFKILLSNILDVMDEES

Turning to `COc1cc(C(=O)Nc2cc(C(F)(F)F)n(C)n2)ccc1-c1nc([C@@H]2CC[C@H]3CCC(=O)N3C2)n2c(Cl)cnc(N)c12` [Example 189, 4-{8-amino-5-chloro-3-[(6R,8aS)-3-oxooctahydroindolizin-6-yl]imidazo[1,5-a]pyrazin-1-yl}-3-methoxy-N-[1-methyl-5-(trifluoromethyl)-1H-pyrazol-3-yl]benzamide], the values for the IC50 in assay [1] and in assay [2] were 1.5 nM and 1550 nM, respectively.

Turning to `Cn1nc(NC(=O)c2ccc(-c3nc([C@@H]4CC[C@H]5CCC(=O)N5C4)n4ccnc(N)c34)c(Cl)c2)cc1C(F)(F)F` [Example 190, 4-{8-amino-3-[(6R,8aS)-3-oxooctahydroindolizin-6-yl]imidazo[1,5-a]pyrazin-1-yl}-3-chloro-N-[1-methyl-5-(trifluoromethyl)-1H-pyrazol-3-yl]benzamide], the figures for the concentration for half-maximal inhibition (IC50) in assay [1] and in assay [2] were 2.2 nM and 310 nM, respectively.

With `Cn1nc(NC(=O)c2ccc(-c3nc([C@@H]4CC[C@H]5CCC(=O)N5C4)n4c(Cl)cnc(N)c34)c(Cl)c2)cc1C(F)(F)F` [Example 191, 4-{8-amino-5-chloro-3-[(6R,8aS)-3-oxooctahydroindolizin-6-yl]imidazo[1,5-a]pyrazin-1-yl}-3-chloro-N-[1-methyl-5-(trifluoromethyl)-1H-pyrazol-3-yl]benzamide], the figures for the IC50 in assay [1] and in assay [2] were 1.9 nM and 994 nM, respectively.

Take `Cn1nc(NC(=O)c2cc(Cl)c(-c3nc([C@@H]4CC[C@H]5CCC(=O)N5C4)n4c(Cl)cnc(N)c34)cc2F)cc1C(F)(F)F` [Example 192, 4-{8-amino-5-chloro-3-[(6R,8aS)-3-oxooctahydroindolizin-6-yl]imidazo[1,5-a]pyrazin-1-yl}-5-chloro-2-fluoro-N-[1-methyl-5-(trifluoromethyl)-1H-pyrazol-3-yl]benzamide]: the half-inhibitory concentration (IC50) in assay [1] was 24.6 nM; in assay [2], 408 nM.

In the case of `Nc1nccn2c([C@@H]3CC[C@H]4CCC(=O)N4C3)nc(-c3cc(F)c(C(=O)Nc4cc(C(F)(F)F)ccn4)cc3Cl)c12` [Example 193, 4-{8-amino-3-[(6R,8aS)-3-oxooctahydroindolizin-6-yl]imidazo[1,5-a]pyrazin-1-yl}-5-chloro-2-fluoro-N-[4-(trifluoromethyl)pyridin-2-yl]benzamide], the values for the IC50 in assay [1] and in assay [2] were 4.6 nM and 213 nM, respectively.

Take `Nc1ncc(Cl)n2c([C@@H]3CC[C@H]4CCC(=O)N4C3)nc(-c3ccc(C(=O)Nc4cc(C(F)(F)F)ccn4)cc3Cl)c12` [Example 194, 4-{8-amino-5-chloro-3-[(6R,8aS)-3-oxooctahydroindolizin-6-yl]imidazo[1,5-a]pyrazin-1-yl}-3-chloro-N-[4-(trifluoromethyl)pyridin-2-yl]benzamide]: the IC50 in assay [1] amounted to 0.39 nM; in assay [2], 226 nM.

As to `Cc1cnc(NC(=O)c2ccc(-c3nc([C@@H]4CC[C@H]5CCC(=O)N5C4)n4ccnc(N)c34)c(Cl)c2)s1` [Example 195, 4-(8-amino-3-((6R,8aS)-3-oxooctahydroindolizin-6-yl)imidazo[1,5-a]pyrazin-1-yl)-3-chloro-N-(5-methylthiazol-2-yl)benzamide], the IC50 in assay [1] came out at 0.63 nM; in assay [2] it was 175 nM.

As to `Cc1cnc(NC(=O)c2ccc(-c3nc([C@@H]4CC[C@H]5CCC(=O)N5C4)n4c(Cl)cnc(N)c34)c(Cl)c2)s1` [Example 196, 4-(8-amino-5-chloro-3-((6R,8aS)-3-oxooctahydroindolizin-6-yl)imidazo[1,5-a]pyrazin-1-yl)-3-chloro-N-(5-methylthiazol-2-yl)benzamide], the figures for the IC50 in assay [1] and in assay [2] were 1.5 nM and 741 nM, respectively.

Regarding `Cc1cc(C(=O)Nc2cc(C(F)(F)F)ccn2)c(F)cc1-c1nc([C@@H]2CC[C@H]3CCC(=O)N3C2)n2c(Cl)cnc(N)c12` [Example 197, 4-(8-amino-5-chloro-3-((6R,8aS)-3-oxooctahydroindolizin-6-yl)imidazo[1,5-a]pyrazin-1-yl)-2-fluoro-5-methyl-N-(4-(trifluoromethyl)pyridin-2-yl)benzamide], the IC50 in assay [1] was determined as 7.8 nM; in assay [2], 199 nM.

One may read the IC50 as the concentration that gives 50% inhibition.

(Values after US20140206681A1, “BTK INHIBITORS” (priority 2013, published 2014).)
